From PubChem BioAssay (NCI)
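In this assay, cells in 96-well plates receive the compound at five concentrations for 48 hours. Endpoints are linearly interpolated between the surrounding concentrations. The concentration for 50% growth inhibition is given as GI50. TGI denotes the concentration required for complete inhibition of growth.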 Where a SMILES comes first, the peptide text is derived from it.

Experiments:
Assay in all cases: inhibition of tumour cell growth, NCI panel, 48 h
[1] = test system: SK-OV-3 ovarian
[2] = test system: HCT-116 colon
[3] = test system: M14 melanoma
[4] = test system: RPMI-8226 leukemia
[5] = test system: U251 CNS
[6] = test system: NCI/ADR-RES ovarian
[7] = test system: PC-3 prostate
[8] = test system: HOP-62 NSCLC
[9] = test system: UO-31 renal
[10] = test system: MDA-MB-231 breast

Cc1cc(N2CCCC2)nc(NCc2cc(Nc3ccnc4cc(Cl)ccc34)ccc2F)n1
GI50 [1]: 2.04 µM | TGI [1]: 3.89 µM | GI50 [2]: 198 nM | TGI [2]: 0.557 µM | GI50 [3]: 1370 nM | TGI [3]: 2.85 µM | GI50 [4]: 404 nM | TGI [4]: 5.04 µM | GI50 [5]: 1.5 µM | TGI [5]: 2.84 µM | GI50 [6]: 1390 nM | TGI [6]: 2.99 µM | GI50 [7]: 1190 nM | TGI [7]: 2580 nM | GI50 [8]: 1460 nM | TGI [8]: 3.14 µM | GI50 [9]: 1.21 µM | TGI [9]: 2.66 µM

O=C(CC1(O)C(=O)Nc2ccccc21)c1ccc(O)cc1 (configuration not stated)
TGI [1]: > 100 µM | TGI [2]: > 100 µM | TGI [3]: > 100 µM | TGI [4]: > 100 µM | TGI [5]: > 100 µM | TGI [8]: > 100 µM | TGI [9]: > 100 µM

CN[C@@H](C)[C@H](N)c1ccccc1
TGI [1]: > 100 µM | TGI [2]: > 100 µM | TGI [3]: > 100 µM | TGI [4]: > 100 µM | TGI [5]: > 100 µM | TGI [9]: > 100 µM

CC(C)CC(Nc1c(O)ccc2ccccc12)C(=O)O (configuration not stated)
TGI [1]: 66.3 µM | TGI [2]: > 100 µM | TGI [3]: > 100 µM | TGI [4]: > 100 µM | TGI [10]: > 100 µM | TGI [5]: > 100 µM | TGI [6]: > 100 µM | TGI [8]: > 100 µM | TGI [9]: > 100 µM

CCC(C)C1NC(=O)C2CCCN2C(=O)CNC(=O)C(C)NC(=O)C(Cc2ccccc2)NC(=O)C(C(C)C)NC1=O (configuration not stated) (cyclo(GPIVFA); configuration not given here)
TGI [1]: > 100 µM | TGI [2]: > 100 µM | TGI [3]: > 100 µM | TGI [4]: > 100 µM | TGI [5]: > 100 µM | TGI [8]: > 100 µM | TGI [9]: > 100 µM

COC(=O)C1C=NNC1C(=O)OC (configuration not stated)
TGI [1]: > 100 µM | TGI [2]: > 100 µM | TGI [3]: > 100 µM | TGI [4]: > 100 µM | TGI [5]: > 100 µM | TGI [8]: > 100 µM | TGI [9]: > 100 µM

C=C1C2CC(OC(C)=O)C3(C)C(c4ccoc4)OC(=O)[C@@H](O)[C@]13OC1C[C@H](OC(C)=O)C(C)(C)[C@H](CC(=O)OC)[C@]12C (some centres not stated)
TGI [1]: > 100 µM | TGI [2]: > 100 µM | TGI [3]: > 100 µM | TGI [4]: > 100 µM | TGI [5]: > 100 µM | TGI [9]: > 100 µM

COc1ccc(-c2cc(-c3cc(Cl)cc(Br)c3O)[nH]c(=O)n2)cc1
TGI [1]: 38.8 µM | TGI [2]: 24.5 µM | TGI [3]: 43.3 µM | TGI [4]: 49 µM | TGI [5]: 31.3 µM | TGI [8]: 28.1 µM | TGI [9]: 34.7 µM

O=S(=O)([O-])[O-].[Cl-].[NH2-].[NH2-].[NH2-].[NH2-].[Ru+3].c1ccncc1
TGI [1]: > 100 µM | TGI [2]: > 100 µM | TGI [3]: > 100 µM | TGI [4]: > 100 µM | TGI [5]: > 100 µM | TGI [8]: > 100 µM | TGI [9]: > 100 µM

O=S1(=O)CCCS(=O)(=O)C(c2ccccc2)=C1c1ccccc1
TGI [1]: > 100 µM | TGI [2]: > 100 µM | TGI [3]: > 100 µM | TGI [4]: > 100 µM | TGI [5]: > 100 µM | TGI [8]: 96.8 µM | TGI [9]: > 100 µM

COc1ccc(/C=c2/sc3n(c2=O)NC2(CCC(C)CC2)NN=3)cc1 (configuration not stated)
TGI [1]: > 100 µM | TGI [2]: > 100 µM | TGI [3]: > 100 µM | TGI [5]: > 100 µM | TGI [8]: > 100 µM | TGI [9]: > 100 µM

CC1=C(C(=O)Nc2ccc([N+](=O)[O-])cc2)C(c2ccc3c(c2)OCO3)C(C(=O)Nc2ccc([N+](=O)[O-])cc2)=C(C)N1
TGI [1]: > 100 µM | TGI [2]: > 100 µM | TGI [3]: 50.4 µM | TGI [4]: 68.5 µM | TGI [5]: > 100 µM | TGI [8]: > 100 µM | TGI [9]: > 100 µM

COc1ccc(/C(Cl)=C(\c2ccc(OCCN(C)C)cc2)c2ccc(OC(=O)C(C)(C)C)cc2)cc1
TGI [1]: 24.4 µM | TGI [2]: 24.4 µM | TGI [3]: 12.1 µM | TGI [4]: 30.9 µM | TGI [5]: 26.5 µM | TGI [8]: 30.5 µM | TGI [9]: 19.3 µM

COC(=O)N/N=C(/CCC(=O)Nc1ccc(C)c(C)c1)CC(=O)C(C)(C)C
TGI [1]: > 100 µM | TGI [3]: > 100 µM | TGI [4]: > 100 µM | TGI [5]: > 100 µM | TGI [8]: > 100 µM | TGI [9]: > 100 µM

O=[N+]([O-])c1cc(Cl)ccc1OCc1ccccc1
TGI [1]: > 100 µM | TGI [2]: > 100 µM | TGI [3]: > 100 µM | TGI [4]: > 100 µM | TGI [5]: > 100 µM | TGI [8]: > 100 µM

CSc1nc(NC2OC(COC(C)=O)C(OC(C)=O)C(OC(C)=O)C2OC(C)=O)c(-c2csc(N)n2)c(=O)n1C (configuration not stated)
TGI [1]: > 100 µM | TGI [2]: > 100 µM | TGI [3]: > 100 µM | TGI [4]: > 100 µM | TGI [5]: > 100 µM | TGI [8]: 66.9 µM | TGI [9]: > 100 µM

CCOC(=N)CC(=O)Nc1cccc(Cl)c1
TGI [1]: > 100 µM | TGI [2]: > 100 µM | TGI [3]: > 100 µM | TGI [5]: > 100 µM | TGI [8]: > 100 µM | TGI [9]: > 100 µM

Cc1ccc(C2=Nc3c(N)ncnc3NC(c3ccc4c(c3)OCO4)C2)cc1 (configuration not stated)
GI50 [1]: 15.8 µM | TGI [1]: 52.3 µM | GI50 [3]: > 100000 nM | TGI [3]: > 100 µM | GI50 [10]: 4.37 µM | TGI [10]: 19.5 µM | GI50 [5]: 4.55 µM | TGI [5]: 16.3 µM | GI50 [6]: 3520 nM | TGI [6]: 22.9 µM | GI50 [8]: > 100000 nM | TGI [8]: > 100 µM | GI50 [9]: 10.8 µM | TGI [9]: 26.5 µM

COc1ccc2c(c1)[n+]([O-])c(-c1ccc(C)cc1)c(N)[n+]2[O-]
TGI [1]: > 100 µM | TGI [2]: > 100 µM | TGI [3]: > 100 µM | TGI [4]: > 100 µM | TGI [5]: > 100 µM | TGI [8]: > 100 µM | TGI [9]: > 100 µM
